{
  "source": "patent US11819572B2",
  "about": "“Treatment of pain by administration of sustained-release liposomal anesthetic compositions” (Pacira Pharmaceuticals, Inc., priority 2020, dated 2023)",
  "key": {"rats": {"system": "rats", "experiment": "Intravenous administration to rats of bupivacaine and EXPAREL: tolerability", "assay_type": "in vivo", "procedure": "The following is a summary of the results from two pre-clinical studies that compared the tolerability and PK profiles for non-liposomal bupivacaine vs EXPAREL®\nImproved toleration was attributed to the reduced peak plasma levels of bupivacaine observed in animals following administration of EXPAREL® vs non-liposomal bupivacaine. 1) Intravenous (IV) Administration to Rats of (a) Bupivacaine and (b) EXPAREL®:\nFree bupivacaine was administered to three rats in an amount equivalent to 1.0, 1.75 and 2.5 mg/kg of bupivacaine. Two rats died, corresponding to a 67% mortality rate. In a separate experiment, EXPAREL® was administered to rats in an amount equivalent to 2.5, 5.0 and 7.5 mg/kg of bupivacaine. […] The NOELs (no observable effect levels) determined for EXPAREL® and for free bupivacaine in this study were 7.5 mg/kg and 1.0 mg/kg, respectively."}, "Beagle dogs": {"system": "Beagle dogs", "experiment": "Intravenous administration to Beagle dogs of bupivacaine and EXPAREL: adverse events and cardiology", "assay_type": "in vivo, Beagle dog", "procedure": "a) Intravenous (IV) Administration to Beagle Dogs of (a) Bupivacaine and (b) EXPAREL®:\nFree bupivacaine was administered to dogs in an amount equivalent to 0.75 mg/kg and to 1.5 mg/kg of bupivacaine. Three dogs (one that was administered 0.75 mg/kg, and two that were administered 1.5 mg/kg) experienced side-effects such as convulsions, tremors, increased respiration and/or emesis (Table 1). In a separate experiment, EXPAREL® was administered to dogs in the same amount as above. […] A 3-fold higher dose of EXPAREL® (that is, a dose equivalent to 4.5 mg/kg of bupivacaine) was then administered to the dogs."}, "in vivo": {"experiment": "in vivo", "conditions": "beagle, dog, iv, 1.5 mg/kg", "procedure": "Without wishing to be held to any particular mechanism or theory, it is believed that the observed toxicity differences above are attributable to the differences in plasma bupivacaine levels of the groups of dogs receiving free bupivacaine and EXPAREL®, respectively. […] Similarly, the Cmax for dogs receiving the same dose as in (i)—i.e., (1.5 mg/kg) of EXPAREL®—was clearly lower than that of dogs receiving free bupivacaine. […] The difference in exposure between the two groups may also be seen by comparing the respective values of Cmax/dose. […] In contrast with the above differences in Cmax in the two groups, the total AUC/dose was similar in dogs receiving EXPAREL® as compared to dogs receiving free bupivacaine. In particular, the values for female dogs were 751 (ng-hr/mL)/(mg/kg) for EXPAREL® (1.5 mg/kg dose), 674 (ng-hr/mL)/(mg/kg) for EXPAREL® (4.5 mg/kg dose), and 738 (ng-hr/mL)/(mg/kg)) for free bupivacaine. The values for male dogs were 1510 (ng-hr/mL)/(mg/kg) for EXPAREL® (1.5 mg/kg dose), 826 (ng-hr/mL)/(mg/kg) for EXPAREL® (4.5 mg/kg dose), and 879 (ng-hr/mL)/(mg/kg) for free bupivacaine.\n(§1) The study was conducted in a manner analogous to the intravenous administration study described in a) above."}, "[1]": {"experiment": "Bupivacaine plasma pharmacokinetics after intra-arterial (IA) administration in Beagle dogs", "assay_type": "in vivo", "conditions": "Beagle dog plasma bupivacaine, 0.1 mg/kg, Day 1, mean", "procedure": "b) Intra-Arterial Administration to Beagle Dogs of (a) Bupivacaine and (b) EXPAREL®:\nas §1"}, "[2]": {"conditions": "three rats, 1.0, 1.75 and 2.5 mg/kg of bupivacaine"}, "[3]": {"conditions": "Beagle dogs, dose 0.75, 1.5 mg/kg (Group 2)"}},
  "data": [
    {"smiles": "CCCCN1CCCCC1C(=O)Nc1c(C)cccc1C", "note": "(stereo not drawn) [free bupivacaine, bupivacaine]", "values": [
      {"measurement": "NOEL (no observable effect level)", "setting": "rats; rats", "result": 1.0, "unit": "mg/kg"},
      {"measurement": "Mortality rate", "setting": "rats; [2]", "result": 67, "unit": "%"},
      {"measurement": "Rats that died", "setting": "rats; [2]", "result": "Two rats died"},
      {"measurement": "Dogs that experienced side-effects such as convulsions, tremors, increased respiration and/or emesis", "setting": "Beagle dogs; 0.75 mg/kg", "result": "one"},
      {"measurement": "Dogs that experienced side-effects such as convulsions, tremors, increased respiration and/or emesis", "setting": "Beagle dogs; 0.75 mg/kg and 1.5 mg/kg of bupivacaine (all)", "result": "Three dogs"},
      {"measurement": "Dogs that experienced side-effects such as convulsions, tremors, increased respiration and/or emesis", "setting": "Beagle dogs; 1.5 mg/kg", "result": "two"},
      {"measurement": "Cardiology: Change in heart rate (BMP, avg)", "setting": "Beagle dogs; [3]", "result": "56 ± 31", "unit": "BMP"},
      {"measurement": "No. of animals exhibiting clinical symptoms: Increased respiration", "setting": "Beagle dogs; [3]", "result": 2},
      {"measurement": "No. of animals exhibiting clinical symptoms: Sustained convulsions", "setting": "Beagle dogs; [3]", "result": 1},
      {"measurement": "No. of animals exhibiting clinical symptoms: Tremors", "setting": "Beagle dogs; [3]", "result": 1},
      {"measurement": "No. of animals exhibiting clinical symptoms: Unsustained convulsions", "setting": "Beagle dogs; [3]", "result": 0},
      {"measurement": "No. of animals exhibiting clinical symptoms: Vomiting", "setting": "Beagle dogs; [3]", "result": 2},
      {"measurement": "AUC(0-t)", "setting": "in vivo; female", "result": 1110, "unit": "ng·h/mL"},
      {"measurement": "AUC(0 − t)/D", "setting": "in vivo; female", "result": 738, "unit": "ng·h/mL/mg/kg"},
      {"measurement": "Cmax", "setting": "in vivo; female", "result": 2050, "unit": "ng/mL"},
      {"measurement": "Cmax/D", "setting": "in vivo; female", "result": 1370, "unit": "ng·kg/mL/mg"},
      {"measurement": "Cmax/dose", "setting": "in vivo; female", "result": 1.37},
      {"measurement": "half-life", "setting": "in vivo; female", "result": 28.4, "unit": "min"},
      {"measurement": "total AUC/dose", "setting": "in vivo; female", "result": "738 (ng-hr/mL)/(mg/kg)"},
      {"measurement": "AUC(0-t)", "setting": "in vivo; male", "result": 1320, "unit": "ng·h/mL"},
      {"measurement": "AUC(0 − t)/D", "setting": "in vivo; male", "result": 879, "unit": "ng·h/mL/mg/kg"},
      {"measurement": "Cmax", "setting": "in vivo; male", "result": 2750, "unit": "ng/mL"},
      {"measurement": "Cmax/D", "setting": "in vivo; male", "result": 1830, "unit": "ng·kg/mL/mg"},
      {"measurement": "Cmax/dose", "setting": "in vivo; male", "result": 1.83},
      {"measurement": "half-life", "setting": "in vivo; male", "result": 31.2, "unit": "min"},
      {"measurement": "total AUC/dose", "setting": "in vivo; male", "result": "879 (ng-hr/mL)/(mg/kg)"},
      {"measurement": "AUC(0-t)", "setting": "[1]; Female", "result": 62.6, "unit": "ng·h/mL"},
      {"measurement": "AUC(0 − t)/D", "setting": "[1]; Female", "result": 626, "unit": "ng·h/mL/mg/kg"},
      {"measurement": "Cmax", "setting": "[1]; Female", "result": 187, "unit": "ng/mL"},
      {"measurement": "Cmax/D", "setting": "[1]; Female", "result": 1870, "unit": "ng·kg/mL/mg"},
      {"measurement": "half-life", "setting": "[1]; Female", "result": 16, "unit": "min"},
      {"measurement": "AUC(0-t)", "setting": "[1]; Male", "result": 71.1, "unit": "ng·h/mL"},
      {"measurement": "AUC(0 − t)/D", "setting": "[1]; Male", "result": 711, "unit": "ng·h/mL/mg/kg"},
      {"measurement": "Cmax", "setting": "[1]; Male", "result": 205, "unit": "ng/mL"},
      {"measurement": "Cmax/D", "setting": "[1]; Male", "result": 2050, "unit": "ng·kg/mL/mg"},
      {"measurement": "half-life", "setting": "[1]; Male", "result": 15.8, "unit": "min"}
    ]}
  ]
}
